The supplement of paper PMC13380429

Tests used:
Settings in all cases: 72 h
HepG2 [1] = test: relative viability EC50 (midpoint between 100% and the lowest measured viability); higher = less toxic
Caco-2 [2] = test: as above
Calu-3 [3] = test: as above
HepG2 [4] = test: cell viability relative to DMSO; higher = less toxic
Caco-2 [5] = test: as above
Calu-3 [6] = test: as above
HepG2 [7] = test: drug sensitivity score (DSS) for viability; higher = more toxic; extreme values may be limits of the assay
Caco-2 [8] = test: as above
Calu-3 [9] = test: as above
U2OS [10] = test: as above
Vero E6 [11] = test: as above
U2OS [12] = test: cell viability relative to DMSO; higher = less toxic
Vero E6 [13] = test: as above
U2OS [14] = test: relative viability EC50 (midpoint between 100% and the lowest measured viability); higher = less toxic

Row | Compound | relative viability EC50 (HepG2 [1]) [µM] | relative viability EC50 (Caco-2 [2]) [µM] | relative viability EC50 (Calu-3 [3]) [µM] | cell viability (HepG2 [4]; 1 nM) [%] | cell viability (HepG2 [4]; 10 nM) [%] | cell viability (HepG2 [4]; 100 nM) [%] | cell viability (HepG2 [4]; 1000 nM) [%] | cell viability (HepG2 [4]; 10000 nM) [%] | cell viability (Caco-2 [5]; 1 nM) [%] | cell viability (Caco-2 [5]; 10 nM) [%] | cell viability (Caco-2 [5]; 100 nM) [%] | cell viability (Caco-2 [5]; 1000 nM) [%] | cell viability (Caco-2 [5]; 10000 nM) [%] | cell viability (Calu-3 [6]; 1 nM) [%] | cell viability (Calu-3 [6]; 10 nM) [%] | cell viability (Calu-3 [6]; 100 nM) [%] | cell viability (Calu-3 [6]; 1000 nM) [%] | cell viability (Calu-3 [6]; 10000 nM) [%] | drug sensitivity score (HepG2 [7]) | drug sensitivity score (Caco-2 [8]) | drug sensitivity score (Calu-3 [9]) | drug sensitivity score (U2OS [10]) | drug sensitivity score (Vero E6 [11]) | cell viability (U2OS [12]; 1 nM) [%] | cell viability (U2OS [12]; 10 nM) [%] | cell viability (U2OS [12]; 100 nM) [%] | cell viability (U2OS [12]; 1000 nM) [%] | cell viability (U2OS [12]; 10000 nM) [%] | cell viability (Vero E6 [13]; 1 nM) [%] | cell viability (Vero E6 [13]; 10 nM) [%] | cell viability (Vero E6 [13]; 100 nM) [%] | cell viability (Vero E6 [13]; 1000 nM) [%] | cell viability (Vero E6 [13]; 10000 nM) [%] | relative viability EC50 (U2OS [14]) [µM]
1 | Cc1nc(N)sc1CCN [amthamine] | > 10 | > 10 | > 10 | 104 | 105 | 106 | 122 | 99.4 | 96.3 | 95.3 | 87.4 | 92.4 | 96.5 | 98.2 | 97.3 | 105 | 109 | 109 | 0 | 0 | 0 |  |  |  |  |  |  |  |  |  |  |  |  | 
2 | O=C(CCCl)NCc1ccccc1 [beclamide] |  |  |  |  |  |  |  |  |  |  |  |  |  |  |  |  |  |  | 0 |  | 0 | 0 | 0 |  |  |  |  |  |  |  |  |  |  | 
3 | Cc1c(N)nc([C@H](CC(N)=O)NC[C@H](N)C(N)=O)nc1C(=O)N[C@H](C(=O)N[C@H](C)[C@@H](O)[C@H](C)C(=O)N[C@H](C(=O)NCCc1nc(-c2nc(C(=O)NCCCNCCCCN)cs2)cs1)[C@@H](C)O)[C@@H](O[C@@H]1O[C@@H](CO)[C@@H](O)[C@H](O)[C@@H]1O[C@@H]1O[C@H](CO)[C@@H](O)[C@H](OC(N)=O)[C@@H]1O)c1cnc[nH]1 [bleomycetin] |  | > 10 |  | 99.4 | 104 | 98.1 | 82.7 | 59.9 | 106 | 102 | 100 | 90.9 | 78.7 | 94 | 95.4 | 93.1 | 76.5 | 51.3 | 4 | 1.7 | 5.2 | 3.4 | 3.9 | 101 | 97.7 | 99.8 | 83.3 | 68.7 | 106 | 103 | 106 | 82.4 | 64.2 | 
4 | O=C(CCCN1CCC(O)(c2ccc(Br)cc2)CC1)c1ccc(F)cc1 [bromperidol] |  |  |  |  |  |  |  |  |  |  |  |  |  |  |  |  |  |  | 0.8 |  | 0 | 0 | 0 |  |  |  |  |  |  |  |  |  |  | 
5 | Cc1ccc(S(=O)(=O)NCl)cc1 [chloramine-T] | > 10 | > 10 | > 10 | 101 | 98.5 | 104 | 102 | 102 | 99.5 | 104 | 92.2 | 101 | 99.2 | 102 | 107 | 92.2 | 101 | 92.6 | 0 | 0 | 0 | 0 |  | 105 | 97.7 | 105 | 99.1 | 99.4 |  |  |  |  |  | > 10
6 | O=c1ccc2ccccc2o1 [coumarin] | > 10 | > 10 | > 10 | 91.8 | 107 | 106 | 96.7 | 111 | 96.5 | 97.6 | 99.2 | 95.9 | 95.5 | 97.7 | 90.9 | 95.6 | 105 | 88.6 | 0 | 0 | 0 | 0 |  | 100 | 98.1 | 96.1 | 99.1 | 98.1 |  |  |  |  |  | > 10
7 | CN(CC(=O)O)C(=N)N [creatine] |  |  |  |  |  |  |  |  |  |  |  |  |  |  |  |  |  |  | 0 |  | 0 | 0 |  |  |  |  |  |  |  |  |  |  |  | 
8 | CN[C@@H](C)[C@H]1[C@H](O)C[C@@]2(C)[C@@H]3CC[C@H]4C(C)(C)[C@@H](NC)CC[C@@]45C[C@@]35CC[C@]12C [cyclovirobuxin-D] | > 10 | > 10 | > 10 | 96.3 | 99.5 | 91.5 | 99 | 99.1 | 101 | 92.1 | 91.2 | 90.1 | 90.6 | 102 | 94.7 | 98.6 | 99.2 | 102 | 0 | 0 | 0 | 0 |  | 101 | 96.3 | 99.4 | 99.8 | 97.6 |  |  |  |  |  | > 10
9 | CO[C@H]1C[C@H](O[C@H]2[C@H](C)O[C@@H](O[C@@H]3/C(C)=C/C[C@@H]4C[C@@H](C[C@]5(C=C[C@H](C)[C@@H](C6CCCCC6)O5)O4)OC(=O)[C@@H]4C=C(C)[C@@H](O)[C@H]5OC/C(=C\C=C\[C@@H]3C)[C@]54O)C[C@@H]2OC)O[C@@H](C)[C@@H]1O [doramectin] | 3.76 |  | > 10 | 112 | 104 | 98.1 | 108 | 44.9 | 102 | 92.9 | 93.9 | 96.8 | 62.5 | 102 | 95.4 | 105 | 93.8 | 75 | 2.5 | 2.3 | 1.8 | 3.7 | 1.4 | 98.1 | 95.7 | 92.6 | 88.5 | 56.6 | 103 | 96.3 | 91.1 | 98.1 | 72.4 | 
10 | O=C(O)[C@@H]1C[C@@H](C2CCCCC2)CN1C(=O)CP(=O)(O)CCCCc1ccccc1 [fosinoprilat] | > 10 | > 10 | > 10 | 105 | 104 | 96.2 | 101 | 101 | 97.6 | 88.5 | 105 | 90.4 | 102 | 99.4 | 98.8 | 98.4 | 95.1 | 108 | 0 | 0 | 0 | 0 |  | 99.6 | 93.7 | 97.5 | 95 | 97.1 |  |  |  |  |  | > 10
11 | COc1ccc2c(c1OC)C(=O)O[C@@H]2[C@H]1c2cc3c(cc2CCN1C)OCO3 [hydrastine-(1R,9S)] |  |  |  |  |  |  |  |  |  |  |  |  |  |  |  |  |  |  | 0 |  | 0 | 0 | 0 |  |  |  |  |  |  |  |  |  |  | 
12 | CN1[C@@H]2CC[C@H]1C[C@@H](OC(=O)[C@H](CO)c1ccccc1)C2 [hyoscyamine] | > 10 | > 10 | > 10 | 111 | 98.2 | 106 | 89.3 | 104 | 103 | 99.8 | 95 | 94.2 | 89.6 | 103 | 91.6 | 99.9 | 97.2 | 99.4 | 0 | 0 | 0 | 0 |  | 98.9 | 101 | 97.8 | 101 | 99.9 |  |  |  |  |  | > 10
13 | COC(=O)C1=C(C)NC(C)=C(C(=O)OC(C)C)[C@@H]1c1cccc2nonc12 [isradipine] | > 10 | > 10 | > 10 | 98.9 | 103 | 105 | 106 | 95.9 | 107 | 96.2 | 99.3 | 93.5 | 94.2 | 101 | 98.9 | 91.7 | 97.9 | 95.2 | 0 | 0 | 0 | 0 |  | 103 | 97.9 | 104 | 102 | 98.5 |  |  |  |  |  | > 10
14 | C=C(C)[C@H]1CN[C@H](C(=O)O)[C@H]1CC(=O)O [kainic-acid] | > 10 | > 10 | > 10 | 106 | 105 | 110 | 102 | 93.7 | 97.5 | 95.7 | 96.7 | 104 | 96.8 | 93.4 | 88.2 | 93.5 | 90.3 | 98.3 | 0 | 0 | 0 | 0 |  | 99.7 | 99.4 | 101 | 99.8 | 95.6 |  |  |  |  |  | > 10
15 | C[N+]1(C)[C@@H]2C[C@@H](OC(=O)[C@H](CO)c3ccccc3)C[C@H]1[C@@H]1O[C@@H]12 [methscopolamine] |  |  |  |  |  |  |  |  |  |  |  |  |  |  |  |  |  |  | 0 |  | 0 | 0 | 0 |  |  |  |  |  |  |  |  |  |  | 
16 | Cc1ccc(-n2nc(C(C)(C)C)cc2NC(=O)NCc2cc(F)ccc2Oc2ccc3c(cnn3CCO)c2)cc1 [pexmetinib] | 2.4 | > 10 | > 10 | 96.9 | 109 | 104 | 90.7 | 0.1 | 100 | 93.2 | 91.4 | 84.3 | 81.4 | 100 | 85.9 | 93.2 | 95.8 | 91 | 7 | 2.1 | 0 | 4.5 | 1.4 | 96.8 | 90.8 | 97.1 | 80.9 | 54.3 | 97.6 | 100 | 91.2 | 104 | 64.7 | 
17 | OCc1ccccc1O[C@@H]1O[C@H](CO)[C@@H](O)[C@H](O)[C@H]1O [salicin] |  |  |  |  |  |  |  |  |  |  |  |  |  |  |  |  |  |  | 0 |  | 0 | 0 | 0 |  |  |  |  |  |  |  |  |  |  | 
18 | Cc1ncc([N+](=O)[O-])n1CC(C)O (stereo not drawn) [secnidazole] |  |  |  |  |  |  |  |  |  |  |  |  |  |  |  |  |  |  | 0 |  | 0.4 | 0 | 0 |  |  |  |  |  |  |  |  |  |  | 
19 | CO[C@H]1C[C@@H]2CC[C@@H](C)[C@@](O)(O2)C(=O)C(=O)N2CCCC[C@H]2C(=O)O[C@H]([C@H](C)C[C@@H]2CC[C@@H](O)[C@H](OC)C2)CC(=O)[C@H](C)/C=C(\C)[C@@H](O)[C@@H](OC)C(=O)[C@H](C)C[C@H](C)/C=C/C=C/C=C/1C [sirolimus] |  |  | < 0.001 | 78.3 | 63.9 | 60.4 | 66.1 | 53.7 | 72.7 | 55.4 | 56.8 | 52 | 54.2 | 65.3 | 42.2 | 42.6 | 47.5 | 47.3 | 17.5 | 22.7 | 29 | 21.2 | 17.5 | 77 | 57.9 | 60.3 | 55.8 | 59.9 | 92.3 | 69.4 | 58.6 | 55.9 | 60.6 | 
20 | O=c1[nH]c(=O)n([C@H]2C[C@H](O)[C@@H](CO)O2)cc1C(F)(F)F [trifluridine] | 0.923 | > 10 | > 10 | 95.9 | 93.2 | 104 | 64.8 | 36.1 | 93.3 | 93.9 | 98.4 | 94 | 81.7 | 106 | 121 | 103 | 100 | 97.7 | 7.8 | 0.9 | 0 |  | 1.2 |  |  |  |  |  | 101 | 105 | 108 | 102 | 69.5 | 
